What all share (experiment): DTP human tumour cell line panel, 48 h
Assay [1] deals with A498.
The subject of assay [2] is BT-549.
The test system of assay [3] is COLO 205.
Assay [4] has as its system EKVX.
In assay [5] the test system is HCT-15.
Assay [6] relates to HT-29.
Assay [7] relates to Hs-578T.
Assay [8] concerns LOX IMVI.
Assay [9] has as its system Malme-3M.
In assay [10] the test system is NCI-H522.
The subject of assay [11] is NCI/ADR-RES.
Assay [12] concerns OVCAR-4.
Assay [13] has as its system OVCAR-8.
Assay [14] deals with PC-3.
For assay [15], the system named is RXF 393.
Assay [16] concerns SK-MEL-28.
The test system of assay [17] is SK-OV-3.
Assay [18] deals with SN12C.
The subject of assay [19] is SNB-75.
Assay [20] deals with U-251.

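Dose response: 5 concentrations. Exposure: 48 h. Format: 96-well plates. Endpoint: linear interpolation; highest concentration if not reached. GI50 is the concentration that inhibits growth by half.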 Active and inactive are the calls of the source. Cut-off read from the data, not from the text of the source: active = GI50 up to about 1.1 µM and inactive = higher.

As for `COc1ccc2c(c1)-c1nc(=S)n(CCN(C)C)c3ccc([N+](=O)[O-])c(c13)N2`, the GI50 (commonly the concentration that inhibits growth by half) in assay [1] was 8.13 µM (inactive); in [2] it was 10.3 µM (inactive); in assay [3], 0.865 µM (active); in assay [4] it was 1.97 µM (inactive); in assay [5] it was 0.731 µM; in assay [6], 0.498 µM (active). Besides, the GI50 in assay [7] is 1.37 µM (inactive); in [8], 0.738 µM (active); in assay [9], 0.693 µM (active); in assay [10] it was 0.533 µM (active); in assay [11], 1.09 µM (active); in [12] it was 2.36 µM (inactive). The GI50 in assay [13] is 0.484 µM (active); in assay [14], 1.06 µM (active); in [15] it was 1.1 µM (active); in assay [16] it was 1.44 µM (inactive); in assay [17], 0.57 µM (active); in assay [18] it was 0.638 µM (active). For the same molecule, the GI50 in assay [19] is 1.3 µM (inactive); in assay [20], 1.08 µM (active).

As for `CSCCC(NC(=O)Cc1ccc(C(=O)c2ccccc2)cc1)C(=O)O` (stereo not given), the GI50 in assay [1] was > 100 µM (inactive); in assay [2] it was > 100 µM (inactive); in assay [3] it was > 100 µM (inactive); in assay [4] it was > 100 µM (inactive); in assay [5] it was over 100 µM; in assay [6], > 100 µM (inactive). Further, the GI50 in assay [7], in assay [8], in assay [9], in [10], in assay [11] and in assay [12] was > 100 µM (inactive) in each case. Moreover, the GI50 in [13], in [14], in assay [15], in [16], in assay [17] and in [18] was > 100 µM (inactive) in each case. In addition, the GI50 in assay [19] and in [20] was > 100 µM (inactive) each time.

In the case of `CC(C)C(OC(=O)c1cc(NC(=S)c2ccccc2)ccc1Cl)C(C)C`, the GI50 in assay [1] is 21.1 µM (inactive); in assay [2] it was 20.8 µM (inactive); in [3], 16.1 µM (inactive); in [4], 12.9 µM (inactive); in [5] it was 9.27 µM; in [6] it was 9.31 µM (inactive). For the same molecule, the GI50 in assay [7] is 21.1 µM (inactive); in assay [8] it was 19.8 µM (inactive); in assay [9], 20.4 µM (inactive); in assay [10], 8.51 µM (inactive); in [11], 16.3 µM (inactive); in assay [12] it was 17.6 µM (inactive). Further, the GI50 in assay [13] was 22.9 µM (inactive); in assay [14], 8.53 µM (inactive); in assay [15], 13.1 µM (inactive); in [16], 21.8 µM (inactive); in [17] it was 32.4 µM (inactive); in assay [18], 14.7 µM (inactive). The GI50 was 19.4 µM (inactive) in [19] and 19.1 µM (inactive) in [20].

For the molecule `COc1cc(C2c3[nH]c4ccc(F)cc4c3C[C@H]3COC(=O)N23)cc(OC)c1O` (stereo not given in full), the GI50 in [1] was 6.71 µM (inactive); in assay [2], 43.2 µM (inactive); in [3] it was 4.18 µM (inactive); in assay [4], 24 µM (inactive); in assay [5], 8.69 µM; in assay [6], 7.55 µM (inactive). Moreover, the GI50 in assay [7] was 2.85 µM (inactive); in [8] it was 5.43 µM (inactive); in assay [9], 14.7 µM (inactive); in [10] it was 15 µM (inactive); in [11], 4.93 µM (inactive); in [12], 16.2 µM (inactive). The GI50 is 10.1 µM (inactive) in assay [13]; 9.16 µM (inactive) in [14]; 3.29 µM (inactive) in assay [15]; 7.96 µM (inactive) in assay [16]; 15.5 µM (inactive) in [17]; 13.5 µM (inactive) in [18]. The figures for the GI50 in assay [19] and in assay [20] were 2.29 µM (inactive) and 6.47 µM (inactive), respectively.

On to `C[Si](C)(c1ccccc1)[C@H]1CCCC=C1CCNC1c2ccccc2CCc2ccccc21`, for which the GI50 in assay [1] is 69.2 µM (inactive); in assay [2], > 100 µM (inactive); in assay [3] it was 38.9 µM (inactive); in assay [4], 29.4 µM (inactive); in [5], 51.2 µM; in [6], 28.7 µM (inactive). Also, the GI50 in assay [7] is > 100 µM (inactive); in assay [8] it was 70.6 µM (inactive); in assay [9], 80 µM (inactive); in assay [10], 50.8 µM (inactive); in assay [11], 76.2 µM (inactive); in assay [12], 41.5 µM (inactive). Further, the GI50 in assay [13] was > 100 µM (inactive); in assay [14], > 100 µM (inactive); in assay [15], 80 µM (inactive); in [16] it was > 100 µM (inactive); in assay [17], > 100 µM (inactive); in assay [18] it was > 100 µM (inactive). The GI50 was 67.3 µM (inactive) in assay [19] and > 100 µM (inactive) in assay [20].

On to `c1c2c(cc3c1OCO3)-c1cc3ccc4c(c3c[n+]1CC2)OCO4` [COPTISINE CHLORIDE], for which the GI50 in assay [1] was 4.73 µM (inactive); in assay [2] it was > 5.85 µM (inactive); in assay [3], 3.56 µM (inactive); in assay [4], 7.71 µM (inactive); in assay [5], 0.638 µM; in [6], 5.65 µM (inactive). Further, the GI50 in [7] is 1.38 µM (inactive); in assay [8] it was 1.01 µM (active); in assay [9] it was 0.259 µM (active); in assay [10] it was 0.311 µM (active); in assay [11], 0.348 µM (active); in assay [12], 5.09 µM (inactive). Also, the GI50 is 1.16 µM (inactive) in [13]; 0.944 µM (active) in assay [14]; 1.99 µM (inactive) in [15]; 1.2 µM (inactive) in assay [16]; 3.3 µM (inactive) in assay [17]; 2.09 µM (inactive) in assay [18]. Also, the GI50 in [19] is 1.28 µM (inactive); in assay [20] it was 0.935 µM (active).
